Data from US5070210A, “Novel ketenimines as intermediates for insecticides” (ICI Americas Inc., priority 1990, dated 1991).

Experiments:
Type in all cases: in vivo
[1] = system: Housefly [Musca domestica]; assay: Housefly insecticidal test; settings: μg per 25 female flies; mortality after 48 hours
Method: (§1) The compounds in Tables 1 and 2 above were tested for insecticidal activity using the following testing procedures. LC50 values, based on the results of these tests and calculated according to dosage-mortality curves, are expressed in Table 3.
Housefly [Musca domestica]:
Test compounds were diluted in acetone and aliquots pipetted onto the bottom of aluminum dishes. To ensure even spreading of the chemical on the bottom of the dishes, 1 ml of acetone containing 0.01% peanut oil was also added to each dish. After all solvents had evaporated, the dishes were placed in circular cardboard cages containing 25 female houseflies, 1-2 days old. The cages were covered on the bottom with cellophane and on the top with tulle netting, and each contained a sugar-water saturated cotton plug for maintenance of the flies. Mortality was recorded after 48 hours. Test levels ranged from 100 μg/25 female houseflies downward. The LC-50 value is expressed below in Table 3 under the heading "HF", in terms of μg of the test compound per 25 female flies.

[2] = system: Cabbage Looper [Trichoplusia ni (Hubner)]; assay: Cabbage looper insecticidal test; settings: second-instar larvae, percent in solution; 3-5 days
Method: as §1
Cabbage Looper [Trichoplusia ni (Hubner)]:
Test compounds were diluted in a 50-50 acetone-water solution. Cotyledons of hyzini squash (Calabacita abobrinha), approximately 1×1.5 inches, were immersed in the test solutions for 2-3 seconds and placed on a wire screen to dry. The dried leaves were placed in petri dishes containing a moistened piece of filter paper and infested with 5 second-instar cabbage looper larvae. The dishes were placed in a high humidity chamber. Mortality of the larvae was recorded 3-5 days later. Test concentrations ranged from 0.1% downward. The LC-50 value is expressed below in Table 3 under the heading "CL" in terms of percent of the test compound in solution.

[3] = system: Tobacco Budworm [Heliothis virescens (Fabricius)] eggs; assay: Tobacco budworm egg test; settings: 2-day old eggs, percent in solution
Method: as §1
Tobacco Budworm [Heliothis virescens (Fabricius)]:
(b). Eggs: Paper towel patches of 2-day old eggs of the tobacco budworm were dipped in acetone solutions of the test compound and placed in petri dishes containing a portion of larval rearing medium. Treated eggs were maintained at 78° F. and mortality was recorded after all control eggs had hatched and the young larvae were feeding on the media. Test concentrations ranged from 0.1% downward. The LC-50 value is expressed below in Table 3 under the heading "TBW-E" in terms of percent of the test compound in the solution.

## Cc1ccc(Oc2cccc(COC(=Nc3ccc(F)cc3)C(C)C)c2)cc1 [Compound 231]
[1]
  LC50, HF: > 100 µg
[2]
  LC50, CL: 0.003%
[3]
  LC50, TBW, E (TBW-E): > 0.1%

## CC(C)C(=Nc1c(F)c(F)c(F)c(F)c1F)OCc1cccc(Oc2ccc(F)cc2F)c1 [Compound 232]
[1]
  LC50, HF: > 100 µg
[2]
  LC50, CL: 0.004%
[3]
  LC50, TBW, E (TBW-E): > 0.1%

## CC(C)C(=Nc1ccc(C(C)(C)C)cc1)OCc1cccc(Oc2ccc(F)cc2)c1 [Compound 235]
[1]
  LC50, HF: > 100 µg
[2]
  LC50, CL: 0.004%
[3]
  LC50, TBW, E (TBW-E): > 0.1%

## Cc1cc(N=C(OCc2cccc(Oc3ccc(F)cc3)c2)C(C)C)ccc1F [Compound 236]
[1]
  LC50, HF: 7 µg
[2]
  LC50, CL: 0.0018%
[3]
  LC50, TBW, E (TBW-E): 0.06%

## CC(C)C(=Nc1ccc(Cl)cc1)OCc1cccc(Oc2ccc(Br)cc2)c1 [Compound 237]
[1]
  LC50, HF: 50 µg
[2]
  LC50, CL: 0.0006%
[3]
  LC50, TBW, E (TBW-E): 0.075%

## CC(C)C(=Nc1ccc2c(c1)OC(C)(C)O2)OCc1cccc(Oc2ccc(Cl)cc2)c1 [Compound 241]
[1]
  LC50, HF: > 100 µg
[2]
  LC50, CL: 0.0004%
[3]
  LC50, TBW, E (TBW-E): > 0.1%

## CC(C)C(=Nc1ccc2c(c1)CCO2)OCc1cccc(Oc2ccccc2)c1 [Compound 243]
[1]
  LC50, HF: 9 µg
[2]
  LC50, CL: 0.005%
[3]
  LC50, TBW, E (TBW-E): > 0.1%

## CC(C)C(=Nc1ccc2c(c1)OCO2)OCc1cccc(Oc2ccc(C(F)(F)F)cc2)c1 [Compound 246]
[1]
  LC50, HF: 60 µg
[2]
  LC50, CL: 0.004%
[3]
  LC50, TBW, E (TBW-E): > 0.1%

## CC(C)C(=Nc1ccc(F)c(Cl)c1)OCc1cccc(Oc2ccc(C(F)(F)F)cc2)c1 [Compound 247]
[1]
  LC50, HF: > 100 µg
[2]
  LC50, CL: 0.009%
[3]
  LC50, TBW, E (TBW-E): > 0.1%

## COc1cc(N=C(OCc2cccc(Oc3ccccc3)c2)C(C)C)cc(OC)c1OC [Compound 248]
[1]
  LC50, HF: 40 µg
[2]
  LC50, CL: 0.02%
[3]
  LC50, TBW, E (TBW-E): > 0.1%

## Cc1cccc(N=C(OCc2cccc(Oc3ccccc3)c2)C(C)C)c1C [Compound 249]
[1]
  LC50, HF: 36 µg
[2]
  LC50, CL: 0.0025%
[3]
  LC50, TBW, E (TBW-E): 0.035%

## Cc1ccc(C)c(N=C(OCc2cccc(Oc3ccccc3)c2)C(C)C)c1 [Compound 250]
[1]
  LC50, HF: 38 µg
[2]
  LC50, CL: 0.004%
[3]
  LC50, TBW, E (TBW-E): 0.038%

## CC(C)C(=Nc1ccc(Br)c(Br)c1)OCc1cccc(Oc2ccc(F)cc2)c1 [Compound 251]
[1]
  LC50, HF: 25 µg
[2]
  LC50, CL: 0.0005%
[3]
  LC50, TBW, E (TBW-E): 0.06%

## CC(C)C(=Nc1ccc(Br)c(Br)c1)OCc1cccc(Oc2ccccc2)c1 [Compound 252]
[1]
  LC50, HF: 34 µg
[2]
  LC50, CL: 0.0035%
[3]
  LC50, TBW, E (TBW-E): 0.04%

## CC(C)C(=Nc1cccc(Cl)c1)OCc1cccc(Oc2ccc(Br)cc2)c1 [Compound 260]
[1]
  LC50, HF: 22 µg
[2]
  LC50, CL: 0.00075%
[3]
  LC50, TBW, E (TBW-E): > 0.1%

## CCC(C)C(=Nc1ccc(F)c(Cl)c1)OCc1ccc(F)c(Oc2ccccc2)c1 (stereo not drawn) [Compound 261]
[1]
  LC50, HF: 24 µg
[2]
  LC50, CL: 0.001%
[3]
  LC50, TBW, E (TBW-E): 0.05%

## Cc1ccc(Cl)cc1N=C(OCc1cccc(Oc2ccccc2)c1)C(C)C [Compound 263]
[1]
  LC50, HF: > 100 µg
[2]
  LC50, CL: 0.05%
[3]
  LC50, TBW, E (TBW-E): > 0.1%

## COc1ccc(Cl)cc1N=C(OCc1cccc(Oc2ccccc2)c1)C(C)C [Compound 264]
[1]
  LC50, HF: > 100 µg
[2]
  LC50, CL: 0.03%
[3]
  LC50, TBW, E (TBW-E): > 0.1%

## CC(C)C(=Nc1ccc(F)cc1)OCc1cccc(Oc2ccc(F)c(F)c2)c1 [Compound 265]
[1]
  LC50, HF: 10 µg
[2]
  LC50, CL: 0.00025%
[3]
  LC50, TBW, E (TBW-E): 0.07%

## CC(C)C(=Nc1cccc(SC(F)(F)F)c1)OCc1cccc(Oc2ccc(F)cc2)c1 [Compound 272]
[1]
  LC50, HF: > 100 µg
[2]
  LC50, CL: 0.0024%
[3]
  LC50, TBW, E (TBW-E): > 0.1%

## CC(C)C(=Nc1ccc2c(c1)OCO2)OCc1cc(Oc2ccc(F)cc2)ccc1Cl [Compound 274]
[1]
  LC50, HF: > 100 µg
[2]
  LC50, CL: 0.1%
[3]
  LC50, TBW, E (TBW-E): > 0.1%

## CC(C)C(=Nc1ccc(F)c(F)c1)OCc1cccc(Oc2ccc(Br)cc2)c1 [Compound 275]
[1]
  LC50, HF: 21 µg
[2]
  LC50, CL: 0.00012%
[3]
  LC50, TBW, E (TBW-E): 0.045%

## CC(C)C(=Nc1ccc(F)c(Br)c1)OCc1cccc(Oc2ccc(Br)cc2)c1 [Compound 276]
[1]
  LC50, HF: 39 µg
[2]
  LC50, CL: 0.002%
[3]
  LC50, TBW, E (TBW-E): 0.1%

## CC(C)C(=Nc1ccc(C2CCCCC2)cc1)OCc1cccc(Oc2ccc(F)cc2)c1 [Compound 280]
[1]
  LC50, HF: > 100 µg
[2]
  LC50, CL: 0.024%
[3]
  LC50, TBW, E (TBW-E): > 0.1%

## CC(C)C(=Nc1ccc(C(F)(F)F)cc1)OCc1ccc(F)c(Oc2ccc(F)cc2)c1 [Compound 287]
[1]
  LC50, HF: > 100 µg
[2]
  LC50, CL: 0.0025%
[3]
  LC50, TBW, E (TBW-E): > 0.1%

## CC(C)C(=Nc1cccc(OC(F)(F)C(F)F)c1)OCc1cccc(Oc2ccc(F)cc2)c1 [Compound 288]
[1]
  LC50, HF: > 100 µg
[2]
  LC50, CL: 0.0015%
[3]
  LC50, TBW, E (TBW-E): > 0.1%

## CCC(CC)C(=Nc1ccc(Cl)cc1)OCc1cccc(Oc2ccc(F)cc2)c1 [Compound 290]
[1]
  LC50, HF: > 100 µg
[2]
  LC50, CL: 0.017%
[3]
  LC50, TBW, E (TBW-E): > 0.1%

## CCC(CC)C(=Nc1cccc(C(F)(F)F)c1)OCc1cccc(Oc2ccc(F)cc2)c1 [Compound 291]
[1]
  LC50, HF: > 100 µg
[2]
  LC50, CL: 0.004%
[3]
  LC50, TBW, E (TBW-E): > 0.1%

## CC(Br)C(=Nc1ccc(F)c(Cl)c1)OCc1cccc(Oc2ccc(F)cc2)c1 (stereo not drawn) [Compound 305]
[1]
  LC50, HF: > 100 µg
[2]
  LC50, CL: 0.048%
[3]
  LC50, TBW, E (TBW-E): > 0.1%

## CC(C)C(=Nc1ccc(C(C)(C)C)c(Cl)c1)OCc1cccc(Oc2ccc(F)cc2)c1 [Compound 308]
[1]
  LC50, HF: > 100 µg
[2]
  LC50, CL: 0.009%
[3]
  LC50, TBW, E (TBW-E): > 0.1%

## CC(C)(F)C(=Nc1ccc(F)c(Cl)c1)OCc1cccc(Oc2ccc(F)cc2)c1 [Compound 309]
[1]
  LC50, HF: > 100 µg
[2]
  LC50, CL: 0.00017%
[3]
  LC50, TBW, E (TBW-E): 0.07%

## CC(C)C(=Nc1ccc(Cl)cc1Cl)OCc1cccc(Oc2ccccc2)c1 [Compound 311]
[1]
  LC50, HF: 22 µg
[2]
  LC50, CL: 0.0017%
[3]
  LC50, TBW, E (TBW-E): 0.1%

## CC(C)C(=Nc1ccc(Cl)cc1Cl)OCc1cccc(Oc2ccc(F)cc2)c1 [Compound 312]
[1]
  LC50, HF: > 100 µg
[2]
  LC50, CL: 0.006%
[3]
  LC50, TBW, E (TBW-E): > 0.1%

## CC(C)C(=Nc1ccc2c(c1)OCO2)OCc1ccc(F)c(Oc2ccc(Cl)cc2)c1 [Compound 313]
[1]
  LC50, HF: > 100 µg
[2]
  LC50, CL: 0.00025%
[3]
  LC50, TBW, E (TBW-E): 0.013%

## CCC(C)C(=Nc1ccc(C(C)C)cc1)OCc1cccc(Oc2ccccc2)c1 (stereo not drawn) [Compound 317]
[1]
  LC50, HF: > 100 µg
[2]
  LC50, CL: 0.0045%
[3]
  LC50, TBW, E (TBW-E): 0.03%

## CC(C)(F)C(=Nc1ccc(F)c(F)c1)OCc1cccc(Oc2ccc(F)cc2)c1 [Compound 318]
[1]
  LC50, HF: 19 µg
[2]
  LC50, CL: 0.0007%
[3]
  LC50, TBW, E (TBW-E): > 0.1%

## CC(C)(F)C(=Nc1cccc(C(F)(F)F)c1)OCc1cccc(Oc2ccc(F)cc2)c1 [Compound 319]
[1]
  LC50, HF: 44 µg
[2]
  LC50, CL: 0.0007%
[3]
  LC50, TBW, E (TBW-E): > 0.1%

## CCC(=Nc1ccc(C(C)C)cc1)OCc1cccc(Oc2ccc(F)cc2)c1 [Compound 320]
[1]
  LC50, HF: > 100 µg
[2]
  LC50, CL: 0.0075%
[3]
  LC50, TBW, E (TBW-E): > 0.1%

## CCC(CC)C(=Nc1ccc(C(C)C)cc1)OCc1cccc(Oc2ccccc2)c1 [Compound 321]
[1]
  LC50, HF: > 100 µg
[2]
  LC50, CL: 0.05%
[3]
  LC50, TBW, E (TBW-E): > 0.1%

## CC(C)c1ccc(N=C(OCc2cccc(Oc3ccc(F)cc3)c2)C(C)(C)C)cc1 [Compound 322]
[1]
  LC50, HF: > 100 µg
[2]
  LC50, CL: 0.007%
[3]
  LC50, TBW, E (TBW-E): > 0.1%

## CC(C)C(=Nc1ccc(F)c(Cl)c1)OCc1cc(F)cc(Oc2ccc(F)cc2)c1 [Compound 327]
[1]
  LC50, HF: > 100 µg
[2]
  LC50, CL: 0.005%
[3]
  LC50, TBW, E (TBW-E): > 0.1%

## CC(C)CC(=Nc1ccc(C(C)C)cc1)OCc1cccc(Oc2ccc(F)cc2)c1 [Compound 329]
[1]
  LC50, HF: 7 µg
[2]
  LC50, CL: 0.033%
[3]
  LC50, TBW, E (TBW-E): > 0.1%

## CC(C)C(=Nc1ccc(F)c(Cl)c1)OCc1cccc(Oc2ccc(I)cc2)c1 [Compound 447]
[1]
  LC50, HF: 33 µg
[2]
  LC50, CL: 0.0009%
[3]
  LC50, TBW, E (TBW-E): > 0.1%

## CC(C)C(=Nc1ccc(F)c(Cl)c1)OCc1ccc(Cl)c(Oc2ccc(F)cc2)c1 [Compound 448]
[1]
  LC50, HF: 16 µg
[2]
  LC50, CL: 0.003%
[3]
  LC50, TBW, E (TBW-E): 0.03%
